Source: US9783510B2, “Small molecule mediated transcriptional induction of E-cadherin” (Vanderbilt University, priority 2014, dated 2017)
pEC50: −log10 of the molar value.

system: E-cadherin expression in SW620 cells; experiment: E-cadherin expression, in-cell Western (ICW), SW620 cells; assay type: cell-based; conditions: Homo sapiens, SW-620, 24 h, change in expression level of E-cadherin in response to 10 μM compound, 24 hours, SW620 cells
Method: SW620 and H520 cells (5×10^4/100 μL) were seeded in a 96-well plate prior to treatment. Cells were treated with 10 μM concentration of synthesized compound in quadruplicate for 24 hours in RPMI 1640 supplemented medium and 100 μg/mL penicillin-streptomycin. The cells were then fixed with 100% methanol for 20 minutes at 4° C. The wells were then washed 2 times with PBS, permeabilized in 2% bovine serum albumin (BSA) and 0.2% TritonX-100 in PBS for 30 minutes at room temperature with gentle agitation, and blocked in LI-COR blocking buffer for 30 minutes at room temperature with gentle agitation. The cells were then incubated with the following primary antibodies: anti-E-Cadherin (1:500) and anti-α-Tubulin (1:1000) diluted in blocking buffer (1:1 dilution in PBS) for 2 hours at room temperature with gentle agitation. The cells were washed 4 times in PBS-T for 5 minutes each, and then incubated with the following secondary antibodies conjugated to a fluorescent entity: IRDye 800-conjugated goat anti-rabbit IgG (1:1000) and IRDye-700-conjugated goat anti-mouse IgG (1:2000) in blocking buffer (1:1 dilution in PBS) with gentle agitation for 1 h at room temperature. The cells were washed 4 times in PBS-T for 5 minutes each followed by a single wash with PBS. All liquid was removed from the wells and the plates were visualized and analyzed on the Odyssey IR imaging system (LI-COR Biosciences).
The assay was further optimized in the following manner. The cells were washed 2 times with PBS, fixed in 100% methanol at room temperature for 15 minutes, and again washed 2 times with PBS. The cells were then incubated with the following primary antibodies: anti-E-Cadherin (1:200) and anti-α-Tubulin (1:2000) diluted in ice cold 2% bovine serum albumin (BSA) and 0.2% TritonX-100 in PBS for 1 hour at room temperature with gentle agitation. The cells were washed 2 times in PBS and then incubated with the following secondary antibodies conjugated to a fluorescent entity: Licor 800-conjugated goat anti-rabbit IgG (1:2000) and IRDye-700-conjugated goat anti-mouse IgG (1:2000) in ice cold 2% BSA and 0.2% TritonX-100 in PBS with gentle agitation for 45 minutes at room temperature. The wells were washed 2 times in PBS, dried, and analyzed as previously mentioned.
N-Acetamidoalkyl-5-arylisoxazole-3-carboxamide analogs were synthesized as described above. Changes in expression level of E-cadherin in response to 10 μM compound in SW620 cells was determined in a cell-based functional assay as described above, and the data are shown in Table III. The compound number corresponds to the compound numbers used in Table II.
EC50 of inducement of E-cadherin expression in SW620 cells was determined in a cell-based functional assay as described above, and the data are shown in Table V. The compound number corresponds to the compound numbers used in Table IV.

Compound | fold induction at 10 µM
Cc1ccc(C(=O)NCCCNC(=O)c2cc(-c3cccs3)on2)c(O)n1 [Compound 46, N-(3-(2-hydroxy-6-methylnicotinamido)propyl)-5-(thiophen-2-yl)isoxazole-3-carboxamide] | 3.48
Cc1ncccc1C(=O)NCCCNC(=O)c1cc(-c2cccs2)on1 [Compound 47, N-(3-(2-methylnicotinamido)propyl)-5-(thiophen-2-yl)isoxazole-3-carboxamide] | 2.72
COC(=O)c1ccc(C(=O)NCCCNC(=O)c2cc(-c3cccs3)on2)nc1 [Compound 48, methyl 6-((3-(5-(thiophen-2-yl)isoxazole-3-carboxamido)propyl)carbamoyl)nicotinate] | 1.48
O=C(NCCCNC(=O)c1cc(-c2cccs2)on1)c1ccc(O)nc1 [Compound 49, N-(3-(6-hydroxynicotinamido)propyl)-5-(thiophen-2-yl)isoxazole-3-carboxamide] | 1.71
O=C(NCCCNC(=O)c1cc(Br)cnc1O)c1cc(-c2cccs2)on1 [Compound 50, N-(3-(5-bromo-2-hydroxynicotinamido)propyl)-5-(thiophen-2-yl)isoxazole-3-carboxamide] | 1.4
Cc1ccnc(O)c1C(=O)NCCCNC(=O)c1cc(-c2cccs2)on1 [Compound 51, N-(3-(2-hydroxy-4-methylnicotinamido)propyl)-5-(thiophen-2-yl)isoxazole-3-carboxamide] | 2.73
COc1ncccc1C(=O)NCCCNC(=O)c1cc(-c2cccs2)on1 [Compound 52, N-(3-(2-methoxynicotinamido)propyl)-5-(thiophen-2-yl)isoxazole-3-carboxamide] | 3.99
CCOc1ncccc1C(=O)NCCCNC(=O)c1cc(-c2cccs2)on1 [Compound 53, N-(3-(2-ethoxynicotinamido)propyl)-5-(thiophen-2-yl)isoxazole-3-carboxamide] | 3.52
O=C(NCCCNC(=O)c1cc(-c2cccs2)on1)c1cncc(F)c1 [Compound 54, N-(3-(5-fluoronicotinamido)propyl)-5-(thiophen-2-yl)isoxazole-3-carboxamide] | 2.22
Cc1cccnc1C(=O)NCCCNC(=O)c1cc(-c2cccs2)on1 [Compound 55, N-(3-(3-methylpicolinamido)propyl)-5-(thiophen-2-yl)isoxazole-3-carboxamide] | 2.98
O=C(NCCCNC(=O)c1cc(-c2ccccc2)on1)c1cccnc1 [Compound 56, N-(3-(nicotinamido)propyl)-5-phenylisoxazole-3-carboxamide] | 3.43
O=C(NCCCNC(=O)c1cc(-c2ccccc2)on1)c1cc(Cl)ccn1 [Compound 57, N-(3-(4-chloropicolinamido)propyl)-5-phenylisoxazole-3-carboxamide] | 3.3
O=C(NCCCNC(=O)c1cc(-c2ccccc2)on1)c1ccc(O)cn1 [Compound 58, N-(3-(5-hydroxypicolinamido)propyl)-5-phenylisoxazole-3-carboxamide] | 3.57
O=C(NCCCNC(=O)c1ccncc1O)c1cc(-c2ccccc2)on1 [Compound 59, N-(3-(3-hydroxyisonicotinamido)propyl)-5-phenylisoxazole-3-carboxamide] | 1.26
COc1ccc(C(=O)NCCCNC(=O)c2cc(-c3ccccc3)on2)c(OC)n1 [Compound 60, N-(3-(2,6-dimethoxynicotinamido)propyl)-5-phenylisoxazole-3-carboxamide] | 2.32
O=C(NCCCNC(=O)c1ncccc1F)c1cc(-c2ccccc2)on1 [Compound 61, N-(3-(3-fluoropicolinamido)propyl)-5-phenylisoxazole-3-carboxamide] | 2.94

Compound | fold induction at 10 µM
O=C(NCCCNC(=O)c1cccc(Br)n1)c1cc(-c2ccccc2)on1 [Compound 62, N-(3-(6-bromopicolinamido)propyl)-5-phenylisoxazole-3-carboxamide] | 2.59
Cc1ccc(C(=O)NCCCNC(=O)c2cc(-c3ccccc3)on2)c(O)n1 [Compound 63, N-(3-(2-hydroxy-6-methylnicotinamido)propyl)-5-phenylisoxazole-3-carboxamide] | 4.59
O=C(NCCCNC(=O)c1cc(-c2ccccc2)on1)c1ccnc(O)c1 [Compound 64, N-(3-(2-hydroxyisonicotinamido)propyl)-5-phenylisoxazole-3-carboxamide] | 1.8
Cc1ncccc1C(=O)NCCCNC(=O)c1cc(-c2ccccc2)on1 [Compound 65, N-(3-(2-methylnicotinamido)propyl)-5-phenylisoxazole-3-carboxamide] | 2.05
COC(=O)c1ccc(C(=O)NCCCNC(=O)c2cc(-c3ccccc3)on2)nc1 [Compound 66, methyl 6-((3-(5-phenylisoxazole-3-carboxamido)propyl)carbamoyl)nicotinate] | 1.55
O=C(NCCCNC(=O)c1cc(-c2ccccc2)on1)c1ccc(O)nc1 [Compound 67, N-(3-(6-hydroxynicotinamido)propyl)-5-phenylisoxazole-3-carboxamide] | 1.22
O=C(NCCCNC(=O)c1cc(Br)cnc1O)c1cc(-c2ccccc2)on1 [Compound 68, N-(3-(5-bromo-2-hydroxynicotinamido)propyl)-5-phenylisoxazole-3-carboxamide] | 1.61
Cc1ccnc(O)c1C(=O)NCCCNC(=O)c1cc(-c2ccccc2)on1 [Compound 69, N-(3-(2-hydroxy-4-methylnicotinamido)propyl)-5-phenylisoxazole-3-carboxamide] | 2
COc1ncccc1C(=O)NCCCNC(=O)c1cc(-c2ccccc2)on1 [Compound 70, N-(3-(2-methoxynicotinamido)propyl)-5-phenylisoxazole-3-carboxamide] | 2.62
Cc1cccnc1C(=O)NCCCNC(=O)c1cc(-c2ccccc2)on1 [Compound 71, N-(3-(3-methylpicolinamido)propyl)-5-phenylisoxazole-3-carboxamide] | 3.61
O=C(NCCCNC(=O)c1ccc2ccccc2n1)c1cc(-c2cccs2)on1 [Compound 72, N-(3-(quinoline-2-carboxamido)propyl)-5-(thiophen-2-yl)isoxazole-3-carboxamide] | 3.13
O=C(NCCCNC(=O)c1cnc2ccccn12)c1cc(-c2cccs2)on1 [Compound 73, N-(3-(imidazo[1,2-a]pyridine-3-carboxamido)propyl)-5-(thiophen-2-yl)isoxazole-3-carboxamide] | 3.04
O=C(NCCCNC(=O)c1ccc(Br)o1)c1cc(-c2cccs2)on1 [Compound 74, N-(3-(5-bromofuran-2-carboxamido)propyl)-5-(thiophen-2-yl)isoxazole-3-carboxamide] | 3.06
O=C(NCCCNC(=O)c1cccs1)c1cc(-c2cccs2)on1 [Compound 75, 5-(thiophen-2-yl)-N-(3-(thiophene-2-carboxamido)propyl)isoxazole-3-carboxamide] | 3.05
O=C(NCCCNC(=O)c1ccc(C(F)(F)F)o1)c1cc(-c2cccs2)on1 [Compound 76, 5-(thiophen-2-yl)-N-(3-(5-(trifluoromethyl)furan-2-carboxamido)propyl)isoxazole-3-carboxamide] | 2.68

same assay, conditions: Homo sapiens, SW-620; inducement of E-cadherin expression in SW620 cells

Compound | pEC50
Cc1ccc(C(=O)NCCCNC(=O)c2cc(-c3ccccc3)on2)c(O)n1 [Compound 63, N-(3-(2-hydroxy-6-methylnicotinamido)propyl)-5-phenylisoxazole-3-carboxamide] | 5.25
